Peptide text beside a SMILES is read from it.
Legend:
HLA A*0201 = molecular target: T1, HLA A*0201 (Homo sapiens, UniProt P04439, D140Y/D185E/D98H/E176V/E277Q/G131W/G231S/I119V/I121R/I166T/I218V/L300P/L318F/N151K/N90K/P208A/P217A/Q86G/Q94H/R138H/R169H/T345S); assay: biochemical; format: binding
T1 construct: Pure Protein, LLC (ran the assay)

HLA A*2402 = molecular target: T2, HLA A*2402 (Homo sapiens, UniProt P04439, D101N/D140Y/D185E/E176V/E190D/F33S/G103R/G107R/I119L/I121M/I306V/K335N/L105A/L180Q/L300P/N151K/N90K/Q86E/Q94H/R106L/R138H/R89G/T104I/T345S/V100E/W191G/Y123F); assay: In vitro class I HLA binding competition assay (fluorescence polarization); settings: allele A2402; cell-free competition with fluorescently labeled control peptide, fluorescence polarization at 72 hours
T2 construct: Pure Protein, LLC (ran the assay)
Description: The cell-free class I HLA binding assay in use at Pure Protein, LLC allows for in vitro quantification of peptide-HLA binding affinity in a competition format. In this assay, a fluorescently labeled, high binding, control peptide is loaded onto 384-well ½-area plates along with unlabeled experimental peptides. To remove endogenous peptides and render the HLA A and B molecules receptive to binding, HLA is heated at 53°C for 15 minutes and immediately added to the assay. The mixture is then allowed to stand for three days. […] Binding of experimental peptides is expressed as the percent inhibition of the labeled control peptide (experimental fluorescence / control fluorescence, multiplied by 100). The percent inhibition values for each experimental peptide (across a range of molar concentrations) are used to calculate the concentration which inhibits 50% of the labeled control peptide’s specific binding. This value is referred to as the peptide’s IC50.

HLA B*0702 = molecular target: T3, HLA B*0702 (Homo sapiens, UniProt P01889); assay: biochemical; format: binding
T3 construct: Pure Protein, LLC (ran the assay)

HLA B*4402 = HLA B*4402 (Homo sapiens, UniProt P01889, A223V/A65T/A93T/A95T/D201E/D98Y/E176V/E187L/E204Q/E69K/G107R/H137Y/K202T/L105A/L119I/N104T/N87E/Q56L/Q94N/R106L/R155S/R180D/S101N/S121R/S35A/S48T/T118I/V36M/W191S/Y140D/Y91S); assay: In vitro class I HLA binding competition assay (fluorescence polarization); settings: allele B4402; cell-free competition with fluorescently labeled control peptide, fluorescence polarization at 72 hours
Description: The cell-free class I HLA binding assay in use at Pure Protein, LLC allows for in vitro quantification of peptide-HLA binding affinity in a competition format. In this assay, a fluorescently labeled, high binding, control peptide is loaded onto 384-well ½-area plates along with unlabeled experimental peptides. To remove endogenous peptides and render the HLA A and B molecules receptive to binding, HLA is heated at 53°C for 15 minutes and immediately added to the assay. The mixture is then allowed to stand for three days. Once the mixture has reached steady equilibrium (at 72 hours), displacement of the high binding control peptide is measured through Fluorescence Polarization. Binding of experimental peptides is expressed as the percent inhibition of the labeled control peptide (experimental fluorescence / control fluorescence, multiplied by 100). The percent inhibition values for each experimental peptide (across a range of molar concentrations) are used to calculate the concentration which inhibits 50% of the labeled control peptide’s specific binding. This value is referred to as the peptide’s IC50.

In the case of `CC[C@H](C)[C@H](NC(=O)[C@H](CCCCN)NC(=O)[C@H](CCCCN)NC(=O)[C@H](CC(C)C)NC(=O)[C@@H](N)Cc1ccc(O)cc1)C(=O)N[C@@H](CCC(N)=O)C(=O)N[C@@H](CC(N)=O)C(=O)N[C@@H](CO)C(=O)N[C@@H](CC(C)C)C(=O)O` [Cluster 319_ICS2] (H-YLKKIQNSL-OH), the IC50 (HLA A*0201) is reported as 2.18 µM, the IC50 (HLA A*2402) is reported as 11.2 µM and the IC50 (HLA B*0702) is reported as 9.2 µM.
`CC[C@H](C)[C@H](N)C(=O)N[C@@H](CCC(N)=O)C(=O)N[C@@H](CC(N)=O)C(=O)N[C@@H](CO)C(=O)N[C@@H](CC(C)C)C(=O)N[C@@H](CO)C(=O)N[C@H](C(=O)N[C@@H](CCC(=O)O)C(=O)N[C@@H](Cc1c[nH]c2ccccc12)C(=O)O)[C@@H](C)O` [Cluster 323_3D7] (H-IQNSLSTEW-OH) showed an IC50 (HLA A*2402) of 21.3 µM and an IC50 (HLA B*4402) of 136 µM.
`CC[C@H](C)[C@H](NC(=O)[C@H](CO)NC(=O)[C@H](CO)NC(=O)[C@H](CC(N)=O)NC(=O)[C@@H](NC(=O)[C@@H](NC(=O)[C@H](CC(N)=O)NC(=O)[C@H](Cc1ccccc1)NC(=O)[C@@H](N)C(C)C)C(C)C)C(C)C)C(=O)O` [Cluster 377_3D7] (H-VFNVVNSSI-OH) was tested, and the IC50 (HLA A*2402) was 11.6 µM.
With `CC[C@H](C)[C@H](NC(=O)[C@@H](N)CC(C)C)C(=O)N[C@@H](CCSC)C(=O)N[C@H](C(=O)N[C@@H](CC(C)C)C(=O)N[C@@H](CO)C(=O)N[C@@H](Cc1ccccc1)C(=O)N[C@@H](CC(C)C)C(=O)N[C@@H](Cc1ccccc1)C(=O)O)C(C)C` [Cluster 387_3D7] (H-LIMVLSFLF-OH) the IC50 (HLA A*2402) was 19.3 µM.
